Article PMC6112376, “Comprehensive Analyses and Prioritization of Tox21 10K Chemicals Affecting Mitochondrial Function by in-Depth Mechanistic Studies” (Environmental Health Perspectives, 2018)
Where a name gives a salt, the structure may show the parent alone. Read-outs that look alike come from different tables or passages of the source.

Tests used:
rat primary hepatocytes [1] = system: rat primary hepatocytes
HepG2 cells [2] = conditions: for IC50: read-out: MMP assays IC50 (µM) HepG2
rat primary hepatocytes [3] = assay: MMP assay in rat primary hepatocytes; conditions: for IC50: read-out: MMP assays IC50 (µM) Rat Hepatocytes
HepG2 cells [4] = conditions: cited from earlier work
[5] = read-out: MMP assays IC50 (µM), qHTS-HepG2
[6] = read-out: MMP assays IC50 (µM) qHTS-HepG2

Compound | MMP assays efficacy (%) Rat Hepatocytes (rat primary hepatocytes [1]) | MMP assays efficacy (%) HepG2 (HepG2 cells [2]) | IC50 (HepG2 cells [2]) | MMP assays IC50 (µM) Rat Hepatocytes (rat primary hepatocytes [3]) | MMP assays efficacy (%) qHTS-HepG2 (HepG2 cells [4]) | IC50 (HepG2 cells [4]; [5]) | IC50 (HepG2 cells [4]; [6]) | IC50 (rat primary hepatocytes [3]) | MMP assays IC50 (µM) HepG2 (HepG2 cells [2]) | IC50 (rat primary hepatocytes [3]; Rattus norvegicus, Hepatocyte) | MMP assays IC50 (µM) qHTS-HepG2 (HepG2 cells [4])
Cl.Nc1ccc(Nc2ccccc2)cc1 | inactive | -54% | 28.2 µM | inactive | -69±28% | 5.82 ± 6.96 µM | – | – | – | – | –
CC1=C(/C=C/C(C)=C/C=C/C(C)=C/C(=O)Nc2ccc(O)cc2)C(C)(C)CCC1 | inactive | -92% | 4.89 µM | inactive | -100±0% | – | 3.4 ± 0.76 µM | – | – | – | –
Cc1cccc(C)c1Nc1ncccc1C(=O)O [Metanixin] | -93±28% | -101% | 21.8 µM | – | -122±21% | 26 ± 2.11 µM | – | 21 ± 1.37 µM | – | – | –
COc1ccc(N)cc1N.O=S(=O)(O)O [2,4-Diaminoanisole sulfate] | -58±24% | -125% | 7.94 µM | – | -95±6% | – | 2.51 ± 1.16 µM | 19.6 ± 19.3 µM | – | – | –
N#Cc1c2ccccc2cc2ccccc12 [Compound 9-Cyanoanthracene] | -32±6% | inactive | – | – | -74±32% | – | 6.85 ± 18.1 µM | – | inactive | 18 ± 5.46 µM | –
CN(C)c1ccc(C(=C2C=CC(=[N+](C)C)C=C2)c2ccccc2)cc1.CN(C)c1ccc(C(=C2C=CC(=[N+](C)C)C=C2)c2ccccc2)cc1.O=C(O)C(=O)O.O=C([O-])C(=O)O.O=C([O-])C(=O)O [Malachite green oxalate] | -44±26% | -65% | 27.5 µM | – | -100±20% | 2.1 ± 1.87 µM | – | 8.67 ± 12.3 µM | – | – | –
O=C1OC(=O)C2C1C1(Cl)C(Cl)=C(Cl)C2(Cl)C1(Cl)Cl (stereo not drawn) [Chlorendic anhydride] | inactive | inactive | – | inactive | inactive | – | – | – | inactive | – | inactive
Cl.Cl.Nc1ccc(-c2ccc(N)cc2)cc1 [Benzidine dihydrochloride] | inactive | -67% | 17.7 µM | inactive | inactive | – | – | – | – | – | inactive
CC(=O)O[C@H]1C[C@H](O[C@H]2[C@@H](O)C[C@H](O[C@H]3[C@@H](O)C[C@H](O[C@H]4CC[C@@]5(C)[C@H](CC[C@@H]6[C@@H]5CC[C@]5(C)[C@@H](C7=CC(=O)OC7)[C@@H](O)C[C@]65O)C4)O[C@@H]3C)O[C@@H]2C)O[C@H](C)[C@H]1O[C@@H]1O[C@H](CO)[C@@H](O)[C@H](O)[C@H]1O [Lanatoside B] | inactive | -96% | 0.69 µM | inactive | -68±14% | 1.1 ± 0.2 µM | – | – | – | – | –
CCCCCCCCCCCCCC[P+](CCCC)(CCCC)CCCC.[Cl-] [Tributyltetradecylphosphonium chloride] | -93±15% | – | 1.12 µM | – | -82±17% | 0.71 ± 0.15 µM | – | 7.66 ± 0.5 µM | – | – | –
CCCCCCCC/C=C\CCCCCCCC(=O)NCc1ccc(O)c(OC)c1 [Olvanil] | inactive | inactive | – | inactive | -74±8% | 13.5 ± 1.9 µM | – | – | inactive | – | –
CSc1nc(NC2CC2)nc(NC(C)(C)C)n1 [Cybutryne] | -69±43% | inactive | – | – | -81±18% | – | 20.9 ± 13.9 µM | 14.3 ± 16 µM | inactive | – | –
CCCC[P+](CCCC)(CCCC)CCCC.[Cl-] [Tetrabutylphosphonium chloride] | -108+36% | inactive | – | – | inactive | – | – | 15.3 ± 5 µM | inactive | – | inactive
CCc1ccc(CCOc2ccc(CC3SC(=O)NC3=O)cc2)nc1 (stereo not drawn) [Pioglitazone hydrochloride] | -69+30% | inactive | – | – | inactive | – | – | – | inactive | 8.9 ± 9.2 µM | inactive
O=[N+]([O-])c1ccc2ncccc2c1 [Compound 6-Nitroquinoline] | -29±7% | inactive | – | – | -51±5% | – | 30.7 ± 11.5 µM | – | inactive | 44.8 ± 16.3 µM | –
[OH-].c1cc[c]([Sn+]([c]2ccccc2)[c]2ccccc2)cc1 [Triphenyltin hydroxide] | -118±53% | -94% | 1.12 µM | – | -95±9% | 0.12 ± 0.03 µM | – | 14.8 ± 5.12 µM | – | – | –

Compound | MMP assays efficacy (%) Rat Hepatocytes (rat primary hepatocytes [1]) | MMP assays efficacy (%) HepG2 (HepG2 cells [2]) | IC50 (HepG2 cells [2]) | MMP assays IC50 (µM) Rat Hepatocytes (rat primary hepatocytes [3]) | MMP assays efficacy (%) qHTS-HepG2 (HepG2 cells [4]) | IC50 (HepG2 cells [4]; [5]) | IC50 (HepG2 cells [4]; [6]) | IC50 (rat primary hepatocytes [3]) | MMP assays IC50 (µM) HepG2 (HepG2 cells [2]) | IC50 (rat primary hepatocytes [3]; Rattus norvegicus, Hepatocyte) | MMP assays IC50 (µM) qHTS-HepG2 (HepG2 cells [4])
Methyl violet | -81±20% | -100% | 0.44 µM | – | -121±3% | 0.07 ± 0.03 µM | – | 1.73 µM | – | – | –
Clc1ccc(Nc2nnc(Cc3ccncc3)c3ccccc23)cc1 | -51±4% | -34% | 30.8 µM | – | -81±8% | 25.6 ± 4.41 µM | – | 20.7 ± 14.7 µM | – | – | –
Cresyl diphenyl phosphate | -76±37% | -91% | 3.55 µM | – | – | – | 2.38 ± 2.32 µM | 23 ± 9 µM | – | – | –
Dinocap | -93±7% | -100% | 0.63 µM | – | -94±10% | – | 0.34 ± 0.3 µM | 4.1 ± 2.16 µM | – | – | –
O=C(c1ccc(OCCN2CCCCC2)cc1)c1c(-c2ccc(O)cc2)sc2cc(O)ccc12 [Raloxifene hydrochloride] | -87±14% | -127% | 7.94 µM | – | -98±9% | 6.69 ± 1.65 µM | – | 20.9 ± 7.23 µM | – | – | –
[Ba+2].[Cl-].[Cl-] [Barium chloride] | inactive | -46% | 39.8 µM | inactive | -68±11% | – | 16.6 ± 8.5 µM | – | – | – | –
CC(C)c1ccc(O)c(C(C)C)c1 [2,4-Diisopropylphenol] | inactive | -115% | 35.5 µM | inactive | -107±10% | – | 17.2 ± 1.99 µM | – | – | – | –
CC1=Nc2ccc3ccccc3c2C1(C)C [1,1,2-Trimethyl-1H-benzo[e]indole] | -100±23% | -96% | 10 µM | – | -76±16% | – | 23.4 ± 4.03 µM | 34.9 ± 8.48 µM | – | – | –
CN(C)c1ccc2nc3ccc(=[N+](C)C)cc-3sc2c1 [Methylene blue trihydrate] | -93±3% | -69% | 4.82 µM | – | -67±11% | 1.31 ± 0.79 µM | – | – | – | 7.29 ± 7.49 µM | –
Nc1ccc(-c2ccc(N)c(N)c2)cc1N [3,3'-Diaminobenzidine] | -62±22% | -55% | 4.47 µM | – | -115±16% | – | 13.7 ± 14.9 µM | 30.7 ± 28.3 µM | – | – | –
CC1(C)[C@@H](O)CC[C@]2(C)[C@H]3C(=O)C=C4[C@@H]5C[C@@](C)(C(=O)O)CC[C@]5(C)CC[C@@]4(C)[C@]3(C)CC[C@@H]12 [Glycyrrhetinic acid] | -44±24% | inactive | – | – | -88±53% | 40.1 ± 9.34 µM | – | – | inactive | 15.6 ± 2.52 µM | –
Cl.Cl.Nc1ccccc1N [1,2-Phenylenediamine dihydrochloride] | -104±10% | -90% | 1.78 µM | – | -99±9% | – | 0.44 ± 0.2 µM | 14.2 ± 2.3 µM | – | – | –
CCCCCCCCCCCCCC[n+]1ccc(C)cc1.[Cl-] [Miripirium chloride] | -106±27% | -121% | – | – | -86±9% | 16.4 ± 4.01 µM | – | 19.5 ± 2.25 µM | – | – | –
O=c1c(O)c(-c2ccc(O)c(O)c2)oc2cc(O)cc(O)c12 [Quercetin dihydrate] | -71±22% | -96% | 2.95 µM | – | -98±4% | 6.2 ± 2.32 µM | – | 5.83 ± 4.93 µM | – | – | –
Cc1ccc(S(=O)(=O)NC2CCCCC2)cc1 [N-Cyclohexyl-4-methyl benzenesulfonamide] | -46±15% | inactive | – | – | -83±10% | 36.1 ± 21 µM | – | 38.1 ± 25.6 µM | inactive | – | –
NC(=O)c1cc([N+](=O)[O-])cc([N+](=O)[O-])c1 [Nitromide] | inactive | inactive | – | inactive | inactive | – | – | – | inactive | – | inactive
